In patent US6573263B2, “Substituted imidazotriazinones” (Bayer Aktiengesellschaft, priority 2000, dated 2003):
One block for each compound: values may come before it.

How the values were obtained:
rats = experiment: Object recognition test (memory test); format: in vivo; conditions: rat, dose of 1.0 mg/kg of body weight p.o., 24 hours interval
Method: The object recognition test is a memory test. It measures the ability of rats (and mice) to differentiate between known and unknown objects and is therefore suitable for the determination of the memory-improving action of the compounds according to the invention.
The test is carried out as described (Blokland et al. NeuroReport 1998, 9, 4205-4208; Ennaceur, A., Delacour, J., Behav. Brain Res. 1988, 31, 47-59; Ennaceur, A., Meliani, K., Psychopharmacology 1992, 109, 321-330; Prickaerts, et al. Eur. J. Pharmacol. 1997, 337, 125-136).
In a first passage, a rat in an otherwise empty relatively large observation arena is confronted with two identical objects. The rat will extensively examine, i.e. sniff and touch, both objects. In a second passage, after an interval of 24 hours, the rat is again tested in the observation arena. One of the known objects is now replaced by a new, unknown object. When a rat recognizes the known object, it will especially examine the unknown object. After 24 hours, a rat, however, has normally forgotten which object it has already examined in the first passage, and will therefore inspect both objects equally intensively. The administration of a substance having learning- and memory-improving action will lead to a rat recognizing the object already seen 24 hours beforehand, in the first passage, as known. […]

PDE 2 = molecular target: T1, PDE 2 (UniProt P14099); experiment: Measurement of the PDE inhibition (PDE 2, [3H]-cAMP substrate, cGMP prestimulation); format: biochemical, porcine or bovine; conditions: cGMP-stimulated PDE 2
T1 sequence (P14099 1-921): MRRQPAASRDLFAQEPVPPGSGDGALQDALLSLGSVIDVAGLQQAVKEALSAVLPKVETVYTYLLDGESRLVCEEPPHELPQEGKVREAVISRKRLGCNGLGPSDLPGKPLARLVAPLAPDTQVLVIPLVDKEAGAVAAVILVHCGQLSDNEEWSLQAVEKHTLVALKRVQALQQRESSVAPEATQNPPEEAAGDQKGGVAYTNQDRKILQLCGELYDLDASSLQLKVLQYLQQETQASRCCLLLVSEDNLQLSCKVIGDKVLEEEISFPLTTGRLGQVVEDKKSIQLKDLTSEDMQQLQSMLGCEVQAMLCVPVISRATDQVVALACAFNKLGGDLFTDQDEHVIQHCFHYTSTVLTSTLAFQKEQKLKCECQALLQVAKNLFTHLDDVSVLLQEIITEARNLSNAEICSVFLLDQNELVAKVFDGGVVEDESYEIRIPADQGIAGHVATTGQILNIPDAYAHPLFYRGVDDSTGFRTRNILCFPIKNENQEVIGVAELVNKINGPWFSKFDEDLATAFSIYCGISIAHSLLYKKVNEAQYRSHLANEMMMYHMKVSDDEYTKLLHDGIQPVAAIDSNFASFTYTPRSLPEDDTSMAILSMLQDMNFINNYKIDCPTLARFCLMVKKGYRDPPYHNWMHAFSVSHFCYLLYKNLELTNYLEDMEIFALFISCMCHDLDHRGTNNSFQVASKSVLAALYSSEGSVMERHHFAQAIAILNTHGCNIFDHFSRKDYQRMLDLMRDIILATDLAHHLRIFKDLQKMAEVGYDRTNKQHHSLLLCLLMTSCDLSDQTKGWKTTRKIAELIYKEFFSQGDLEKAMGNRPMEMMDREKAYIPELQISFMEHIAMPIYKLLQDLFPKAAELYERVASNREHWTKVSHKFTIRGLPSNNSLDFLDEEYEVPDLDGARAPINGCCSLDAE
Method: The cGMP-stimulable PDE (PDE 2), the cGMP-inhibitable PDE (PDE 3) and the cAMP-specific PDE (PDE 4) were isolated either from porcine or bovine heart myocardium. The Ca^2+ calmodulin-stimulable PDE 1 was isolated from porcine aorta, porcine brain or preferably from bovine aorta. The cGMP-specific PDE (PDE 5) was preferably obtained from porcine small intestine, porcine aorta, human blood platelets and preferably from bovine aorta. Purification was carried out by anion exchange chromatography on mono Q^R Pharmacia essentially according to the method of Hoey, M; Houslay, M. D., Biochem. Pharmacol. 1990, 40, 193-202 and Lugman et al. Biochem. Pharmacol. 1986, 35, 1743-1751.
The enzyme activity was determined in a test batch of 100 μl in 20 mM tris/HCl buffer pH 7.5 which contains 5 mM MgCl2, 0.1 mg/ml of bovine serum albumin and either 800 Bq of [^3H]-cAMP or [^3H]-cGMP. […] 100 μl of the reaction batch are separated on the HPLC and the cleavage products are determined quantitatively online using a flow-through scintillation counter. The substance concentration at which the reaction rate is decreased by 50% is measured. […]
Test substances were dissolved in 100% DMSO (10 mM), and this solution was further diluted with H2O (highest final concentration in the test: 10 μM). […] After the beads had settled (about 15 min), the plate was measured in a beta counter.

[1] = system: intracellular neuronal cGMP concentration in primary rat brain cell cultures; experiment: Measurement of the increase in the intracellular neuronal cGMP concentration in cell cultures (SNP prestimulation); format: cell-based; conditions: parallel incubation of neurons with SNP, 37° C., 20 min
From the text: PDE 2 inhibitors increase the intracellular neuronal cGMP concentration after prestimulation of the guanylate cyclase using 10^−4 M sodium nitroprusside (SNP) in primary rat brain cell cultures.
Rat embryos were decapitated and the heads were transferred to preparation dishes. The scalp and cranium were removed, and the exposed brains were transferred to a further Petri dish. With the aid of a binocular microscope and two pairs of forceps, hippocampi were isolated from the cortex and cooled to 4° C. using ice. This preparation and the isolation of the hippocampal neurons were then carried out according to a standard protocol using the papain dissociation system (Worthington Biochemical Corporation, Lakewood, N.J. 08701, USA) (Huettner et al. J. Neurosci. 1986, 6, 3044-3060). The mechanically isolated neurons were cultured under standard conditions (37° C., 5% CO2) to 150,000 cells/hole in 200 μl of neurobasal medium/hole (neurobasal; Gibco/BRL; 2 mM L-glutamine; in the presence of penicillin/streptomycin) for 7 days in 96-hole plates (pretreated with poly-D-lysine 100 μg/ml for 20 min). After 7 days, the medium was removed and the cells were washed with HBS buffer (Gibco/BRL). […] The cells were then lysed in 200 μl of lysis buffer (cGMP kit code RPN 226; from Amersham Pharmacia Biotech.) and the cGMP concentration was measured according to the instructions of the manufacturer. […]

Structure (SMILES): COc1ccc(Cc2nn3c([C@@H](CCCc4ccccc4)[C@@H](C)O)nc(C)c3c(=O)[nH]2)cc1OC (single isomer, unassigned) [Example 16]
effect in the object recognition test (rats): shows an effect

melting point: 138 °C
IC50 (PDE 2): 10 nM
Structure (SMILES): COc1ccc(Cc2nn3c(C(CCCc4ccccc4)C(C)=O)nc(C)c3c(=O)[nH]2)cc1 (stereo not shown) [Example 2, 7-(1-Acetyl-4-phenylbutyl)-2-(4-methoxybenzyl)-5-methylimidazo[5,1-f][1,2,4]triazin-4(3H)-one]

Structure (SMILES): COc1ccc(Cc2nn3c(C(CCCc4ccccc4)C(C)O)nc(C)c3c(=O)[nH]2)cc1OC (stereo not shown) [Example 15, 2-(3,4-Dimethoxybenzyl)-7-[1-(1-hydroxyethyl)-4-phenylbutyl]-5-methylimidazo-[5,1-f][1,2,4]triazin-4(3H)-one]
concentration from which a marked increase in the intracellular cGMP level was seen [1]: ≥ 100 nM
